1 compound from paper PMC5667422 (Theranostics, 2017) can be followed below.

Each structure is given as a SMILES string.

This test has as its system integrin α2β1 expression in A549 cells. In words: Integrin α2β1 expression in A549 cells after doxorubicin treatment. Format: cell-based, human. The conditions noted are these: doxorubicin 4 μg/mL.

In the case of `COc1cccc2c1C(=O)c1c(O)c3c(c(O)c1C2=O)C[C@@](O)(C(=O)CO)C[C@@H]3O[C@H]1C[C@H](N)[C@H](O)[C@H](C)O1` [doxorubicin], the “integrin α2 and β1 protein levels by Western blot after treatment” value (48 h, semi-quantitative, p < 0.01) is given as “markedly higher level of both integrin proteins”. Further, the “integrin α2β1 expression by FACS after treatment” value (48 h vs wild-type) is recorded as “clear shift in the abundance of integrin α2β1”.
